Measurements: US12180207B2 (ARRAY BIOPHARMA INC., priority 2018, dated 2024)
pIC50: −log10 of the molar value.

Columns and labels:
[1] = target: FGFR1 (SEQ ID NO: 1, amino acids 458-765) (Homo sapiens (Human), UniProt P11362); experiment: LC/MS FGFR1 kobs assay (covalent protein modification); assay type: binding; conditions: 500 nM FGFR1, 3 μM compound
How it was run: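 Covalent labeling of FGFR1 kinase domain (aa 458-765) tracked over time by intact-protein LC/MS after formic acid quench. kobs derived by fitting DMSO-normalized percent unmodified FGFR1 to an exponential decay model.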

[2] = target: recombinant human FGFR1 catalytic domain (amino acids 308-731) (Homo sapiens (Human), UniProt P11362); experiment: FGFR1 enzyme activity assay (LanthaScreen TR-FRET); assay type: biochemical; conditions: 20 min incubation at 22° C., average of multiple determinations if made, read-out: FGFR1 Enz FRET IC50
Sequence of recombinant human FGFR1 catalytic domain (amino acids 308-731) (P11362 other isoform, or with tags, fused parts or gaps): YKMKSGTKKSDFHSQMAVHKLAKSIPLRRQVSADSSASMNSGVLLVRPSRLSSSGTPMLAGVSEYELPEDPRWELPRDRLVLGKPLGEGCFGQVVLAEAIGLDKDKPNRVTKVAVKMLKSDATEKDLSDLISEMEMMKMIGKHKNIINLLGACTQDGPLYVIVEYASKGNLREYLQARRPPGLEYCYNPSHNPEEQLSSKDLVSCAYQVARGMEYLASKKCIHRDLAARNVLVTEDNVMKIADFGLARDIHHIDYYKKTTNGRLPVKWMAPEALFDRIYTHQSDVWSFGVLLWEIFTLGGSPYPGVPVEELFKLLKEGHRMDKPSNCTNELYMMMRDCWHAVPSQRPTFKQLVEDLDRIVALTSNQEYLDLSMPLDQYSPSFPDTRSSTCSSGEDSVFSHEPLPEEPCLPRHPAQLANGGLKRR
How it was run: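 His-tagged FGFR1 kinase domain with 100 nM Alexa Fluor 647-poly-GT peptide and ATP in pH 7.5 HEPES/MgCl2 buffer with 2% DMSO, 20 min at 22 °C. Quenched with EDTA plus 2 nM Eu-PY20 antibody and read after 60 min. IC50 comes from a 4-parameter fit of percent of control.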

[3] = target: FGFR3 (SEQ ID NO: 5, amino acids 449-759) (Homo sapiens (Human), UniProt P22607); experiment: LC/MS FGFR3 kobs assay (covalent protein modification); assay type: binding; conditions: 500 nM FGFR3, 3 μM compound
Sequence of FGFR3 (SEQ ID NO: 5, amino acids 449-759) (P22607 449-759): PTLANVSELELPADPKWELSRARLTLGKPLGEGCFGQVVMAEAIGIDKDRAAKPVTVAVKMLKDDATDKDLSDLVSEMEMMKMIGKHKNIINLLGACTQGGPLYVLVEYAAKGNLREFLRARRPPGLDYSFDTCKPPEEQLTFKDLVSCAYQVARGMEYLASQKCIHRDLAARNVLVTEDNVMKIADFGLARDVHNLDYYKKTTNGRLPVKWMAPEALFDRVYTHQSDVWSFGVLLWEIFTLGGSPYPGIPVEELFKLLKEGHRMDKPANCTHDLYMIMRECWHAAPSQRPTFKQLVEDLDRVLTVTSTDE
How it was run: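 Timed reactions were stopped with 0.4% formic acid, and covalent adduct formation was measured by LC/MS on a Q-TOF with deconvolution of protein masses. Modified signal was normalized to DMSO-control unmodified protein at each time point; percent unmodified protein was fit to exponential decay to give kobs.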

dephosphorylated FGFR2 = dephosphorylated FGFR2 (Homo sapiens (Human), UniProt P21802); experiment: FGFR enzyme binding assay (HTRF tracer displacement), FGFR2; conditions: 5 nM dephosphorylated FGFR2, average of multiple determinations if made
Sequence of dephosphorylated FGFR2 (P21802 22-821): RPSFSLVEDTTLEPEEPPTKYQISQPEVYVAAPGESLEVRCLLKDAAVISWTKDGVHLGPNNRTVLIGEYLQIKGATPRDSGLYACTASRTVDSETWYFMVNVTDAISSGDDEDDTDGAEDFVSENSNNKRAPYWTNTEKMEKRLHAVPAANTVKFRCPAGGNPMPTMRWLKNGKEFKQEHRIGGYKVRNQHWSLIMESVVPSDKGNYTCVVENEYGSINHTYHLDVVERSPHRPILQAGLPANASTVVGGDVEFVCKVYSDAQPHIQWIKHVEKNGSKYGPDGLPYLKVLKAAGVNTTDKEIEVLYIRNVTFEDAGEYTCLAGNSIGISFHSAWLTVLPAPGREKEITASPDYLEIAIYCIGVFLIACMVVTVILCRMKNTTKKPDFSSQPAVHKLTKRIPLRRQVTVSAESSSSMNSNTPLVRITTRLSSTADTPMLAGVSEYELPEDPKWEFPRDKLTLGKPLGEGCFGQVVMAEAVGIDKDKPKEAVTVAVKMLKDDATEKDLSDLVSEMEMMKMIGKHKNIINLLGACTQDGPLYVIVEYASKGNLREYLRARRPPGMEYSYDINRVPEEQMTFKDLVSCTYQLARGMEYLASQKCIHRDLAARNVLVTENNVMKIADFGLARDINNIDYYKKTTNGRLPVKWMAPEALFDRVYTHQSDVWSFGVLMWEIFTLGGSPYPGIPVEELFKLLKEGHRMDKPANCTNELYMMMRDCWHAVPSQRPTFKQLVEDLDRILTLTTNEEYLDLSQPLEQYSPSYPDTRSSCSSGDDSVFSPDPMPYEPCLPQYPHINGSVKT
Method: The potency of compounds inhibiting human isoforms of FGFR kinase was determined using Life Technologies' Homogeneous Time Resolved Fluorescence (HTRF)-based binding assay technology. […] After a 60 minute incubation at 22° C., the extent of tracer displacement was determined using a PerkinElmer EnVision multimode plate reader via HTRF dual wavelength detection, and the percent of control (POC) was calculated using a ratiometric emission factor. One hundred POC was determined using no test compound, and 0 POC was determined in the presence of 1 μM of an appropriate control inhibitor.

[4] = target: recombinant human FGFR3 (amino acids R397-T806) (Homo sapiens (Human), UniProt P22607); experiment: FGFR3 enzyme activity assay (LanthaScreen TR-FRET); assay type: biochemical; conditions: 25 μM ATP, 10 min incubation at 22° C., average of multiple determinations if made, read-out: FGFR3 Enz FRET IC50
Sequence of recombinant human FGFR3 (amino acids R397-T806) (P22607 397-806): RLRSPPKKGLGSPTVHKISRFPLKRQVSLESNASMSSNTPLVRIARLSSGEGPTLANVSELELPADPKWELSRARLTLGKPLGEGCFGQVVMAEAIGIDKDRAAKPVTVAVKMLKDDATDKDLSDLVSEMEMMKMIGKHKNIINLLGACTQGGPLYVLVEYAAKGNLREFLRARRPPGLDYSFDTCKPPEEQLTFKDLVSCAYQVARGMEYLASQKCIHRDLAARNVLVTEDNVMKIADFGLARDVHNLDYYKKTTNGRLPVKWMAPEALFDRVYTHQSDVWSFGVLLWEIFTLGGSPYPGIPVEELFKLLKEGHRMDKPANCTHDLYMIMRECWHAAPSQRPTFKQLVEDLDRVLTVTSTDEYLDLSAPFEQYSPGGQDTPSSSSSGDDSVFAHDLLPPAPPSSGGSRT
How it was run: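 GST-HIS6-tagged human FGFR3 (R397-T806) was reacted with 100 nM Alexa Fluor 647-Poly-GT substrate and 25 μM ATP plus compound in HEPES/MgCl2/Triton buffer, pH 7.5, 2% DMSO, for 10 min at 22 °C.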

Sequence of FGFR1 (SEQ ID NO: 1, amino acids 458-765) (P11362 458-765): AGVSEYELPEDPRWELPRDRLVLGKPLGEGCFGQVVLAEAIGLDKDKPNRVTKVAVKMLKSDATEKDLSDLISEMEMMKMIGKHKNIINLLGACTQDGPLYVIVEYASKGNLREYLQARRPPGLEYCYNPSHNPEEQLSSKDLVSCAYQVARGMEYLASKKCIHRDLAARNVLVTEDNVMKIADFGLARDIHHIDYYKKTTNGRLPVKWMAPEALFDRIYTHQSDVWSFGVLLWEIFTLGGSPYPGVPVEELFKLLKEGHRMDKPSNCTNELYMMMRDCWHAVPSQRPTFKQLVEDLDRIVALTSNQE

| Compound | FGFR1 Enz kobs [1] [min⁻¹] | pIC50 [2] | FGFR3 Enz kobs [3] [min⁻¹] | pIC50 (dephosphorylated FGFR2) | pIC50 [4] |
| --- | --- | --- | --- | --- | --- |
| C=CC(=O)N1CCN(C(=O)N2CCC(n3cc(-c4cc(OC)c5c(C#N)cnn5c4)cn3)CC2)C[C@@H]1CC#N [Example 135, (S)-6-(1-(1-(4-acryloyl-3-(cyanomethyl)piperazine-1-carbonyl)piperidin-4-yl)-1H-pyrazol-4-yl)-4-methoxypyrazolo[1,5-a]pyridine-3-carbonitrile] | 0.0029 | 7.70 | 0.02201 | 7.89 | 8.22 |
| C=CC(=O)N1CC(CN2CCC(n3ncc(-c4cc(OC)c5c(Cl)cnn5c4)c3C)CC2)C1 [Example 118, 1-(3-((4-(4-(3-chloro-4-methoxypyrazolo[1,5-a]pyridin-6-yl)-5-methyl-1H-pyrazol-1-yl)piperidin-1-yl)methyl)azetidin-1-yl)prop-2-en-1-one] | 0.00303 | 6.26 | 0.02502 | 7.25 | 7.39 |
| C=CC(=O)N1CC(C(=O)N2CCC3(CC2)CN(c2ccc(-c4cc(OC)c5c(C#N)cnn5c4)cn2)C3)C1 [Example 102, 6-(6-(7-(1-acryloylazetidine-3-carbonyl)-2,7-diazaspiro[3.5]nonan-2-yl)pyridin-3-yl)-4-methoxypyrazolo[1,5-a]pyridine-3-carbonitrile] | 0.00313 | 7.42 | 0.02912 | 7.66 | 7.66 |
| COc1cc(-c2cnn(C3CCN(C(=O)C4CN(C(=O)C5=CCC5)C4)CC3)c2)cn2ncc(C#N)c12 [Example 137, 6-(1-(1-(1-(cyclobut-1-ene-1-carbonyl)azetidine-3-carbonyl)piperidin-4-yl)-1H-pyrazol-4-yl)-4-methoxypyrazolo[1,5-a]pyridine-3-carbonitrile] |  | 7.92 | 0.00097 | 7.82 | 8.30 |

Now from value to compound:

| FGFR1 Enz kobs [1] [min⁻¹] | pIC50 [2] | FGFR3 Enz kobs [3] [min⁻¹] | pIC50 (dephosphorylated FGFR2) | pIC50 [4] | Compound |
| --- | --- | --- | --- | --- | --- |
| 0.00409 | 6.07 | 0.04202 | 6.81 | 6.99 | C=CC(=O)N1CC(OC)(C(=O)N2CCC(n3nc(C)c(-c4cc(OC)c5c(C#N)cnn5c4)c3C)CC2)C1 [Example 95, 6-(1-(1-(1-acryloyl-3-methoxyazetidine-3-carbonyl)piperidin-4-yl)-3,5-dimethyl-1H-pyrazol-4-yl)-4-methoxypyrazolo[1,5-a]pyridine-3-carbonitrile] |
| 0.0025 | 7.05 | 0.03267 | 8.22 | 7.74 | COc1cc(-c2cnn(C3CCN(C(=O)C4(C)CN(C(=O)/C=C/CN(C)C)C4)CC3)c2C)cn2ncc(C#N)c12 [Example 157, (E)-6-(1-(1-(1-(4-(dimethylamino)but-2-enoyl)-3-methylazetidine-3-carbonyl)piperidin-4-yl)-5-methyl-1H-pyrazol-4-yl)-4-methoxypyrazolo [1,5-a]pyridine-3-carbonitrile] |
| 0.03227 | 6.59 |  | 7.29 | 7.96 | COc1cc(-c2cnn(C3CCN(C(=O)C4(F)CN(C(=O)/C=C/C(F)(F)F)C4)CC3)c2C)cn2ncc(C#N)c12 [Example 155, (E)-6-(1-(1-(3-fluoro-1-(4,4,4-trifluorobut-2-enoyl)azetidine-3-carbonyl)piperidin-4-yl)-5-methyl-1H-pyrazol-4-yl)-4-methoxypyrazolo [1,5-a]pyridine-3-carbonitrile] |
| 0.00471 | 6.95 | 0.0804 | 7.39 | 7.62 | COc1cc(-c2cnn(C3CCN(C(=O)C4(OC)CN(C(=O)/C=C/CN(C)C)C4)CC3)c2C)cn2ncc(Cl)c12 [Example 171, (E)-1-(3-(4-(4-(3-chloro-4-methoxypyrazolo [1,5-a]pyridin-6-yl)-5-methyl-1H-pyrazol-1-yl)piperidine-1-carbonyl)-3-methoxyazetidin-1-yl)-4-(dimethylamino)but-2-en-1-one] |
